For one compound, IC50 results are on record in paper PMC10926482, “BK Channels Are Activated by Functional Coupling With L-Type Ca^2+ Channels in Cricket Myocytes” (Frontiers in Insect Science, 2021).

A word on the IC50: it is the point on the concentration scale where inhibition reaches its midpoint.

For this assay, the system named is T1, BK channel (large-conductance Ca2+-activated K+ channel) of cricket oviduct myocytes.
T1 construct: gene slo; native channel in isolated adult female lateral oviduct myocytes; single-channel patch clamp; not molecularly identified; homotetramer expected, auxiliary subunits unknown
As to the kind of experiment: cell-attached single-channel patch clamp, current amplitude, pipette backfill. It counts as cell-based, Gryllus bimaculatus. The note with it: extracellular side; open-channel block; Hill coefficient 1.0; pipette solution 140 mM KCl, 1.6 mM CaCl2, pH 7.4; 22–27°C; counterion not given. An excerpt: cell-attached single-channel patch clamp, current amplitude, pipette backfill on BK channel (large-conductance Ca2+-activated K+ channel) of cricket oviduct myocytes | inhibitory effect on the current amplitude of a single BK channel with an IC50 value

As for `CC[N+](CC)(CC)CC` [TEA, tetraethylammonium], the IC50 was 319 ± 68.8 µM.
